Several values for one entry are separate records, joined by “and”; a condition that tells them apart may be missing. Equal values may be shown once. Read-outs that look alike come from different tables or passages of the source.
Legend:
A549 (Lung) = assay: Sulforhodamine B cytotoxicity assay; type: cell-based; conditions: Homo sapiens, A549; for IC50: SRB, 48 hours incubation, read-out: Human cancer cell lines IC50 A549 (Lung)
Method: (§1) The benzyl compounds were evaluated by Sulforhodamine B Assay as per reported method [Skehan etal., J. Natl. Cancer Inst.1990, 82, 1107]. The human cancer cell lines procured from National Cancer Institute, Frederick, U. S. A. were used in present study. Cells were grown in tissue culture flasks in complete growth medium (RPMI-1640 medium with 2 mM glutamine, pH 7.4 supplemented with 10% fetal bovine serum, 100 µg/ml streptomycin and 100 units/ml penicillin) in a carbon dioxide incubator (37°C, 5% CO2, 90% RH). The cells at subconfluent stage were harvested from the flask by treatment with trypsin (0.05% in PBS (pH 7.4) containing 0.02% EDTA). Cells with viability of more than 98%, as determined by trypan blue exclusion, were used for determination of cytotoxicity. The cell suspension required concentration of cells was prepared in complete growth medium. Stock solution of 2x10^-2 M of compounds were prepared in DMSO and further dilution was carried out complete growth medium containing 50µg/ml of gentamycin to obtained working test solution of required concentration. In vitro cytotoxicity against various human cancer cell lines was determined using 96-well cell culture plates. The 100µl of cell suspension was added to each well of the 96-well cell culture plates. The cells were allowed to grow in CO2 incubator (37°C, 5% CO2, 90% RH) for 24 hours. The test materials in complete growth medium (100 µl) were added after 24 hours incubation to the wells containing cell suspension. The plates were further incubated for 48 hours (37°C in an atmosphere of 5% CO2 and 90% relative humidity) in a carbon dioxide incubator after addition of test material and then the cell growth was stopped by gently layering trichloroacetic acid (50% TCA, 50 µl) on top of the medium in all the wells. The plates were incubated at 4°C for one hour to fix the cells attached to the bottom of the wells. The liquid of all the wells was gently pipetted out and discarded. The plates were washed five times with distilled water to remove TCA, growth medium low molecular weight metabolites, serum proteins etc. and air - dried. Cell growth was measured by staining with sulforhodamine B dye. The adsorbed dye was dissolved in Tris-HCl Buffer (100 µl/well, 0.01M, pH 10.4) and plates were gently stirred for 10 minutes on a mechanical stirrer. The optical density (OD) was recorded on ELISA reader at 540nm. Paclitaxel (Taxol), and 5-Fluorouracil were used as positive controls (Standard drugs).

HCT-116 (Colon) = assay: Sulforhodamine B cytotoxicity assay; type: cell-based; conditions: Homo sapiens, HCT-116; for IC50: SRB, 48 hours incubation, read-out: Human cancer cell lines IC50 HCT-116 (Colon)
Method: as §1

Hela (Cervix) = assay: Sulforhodamine B cytotoxicity assay; type: cell-based; conditions: Homo sapiens, Concentration 20 µM
Method: as §1

MCF-7 (Breast cancer) = assay: Sulforhodamine B cytotoxicity assay; type: cell-based; conditions: Homo sapiens, MCF7; for IC50: SRB, 48 hours incubation, read-out: Human cancer cell lines IC50 MCF-7 (Breast cancer)
Method: as §1

T-47D (Breast cancer) = assay: Sulforhodamine B cytotoxicity assay; type: cell-based; conditions: Homo sapiens, T47D; for IC50: SRB, 48 hours incubation, read-out: Human cancer cell lines IC50 T-47D (Breast cancer)
Method: as §1

THP-1 (Leukemia) = assay: Sulforhodamine B cytotoxicity assay; type: cell-based; conditions: Homo sapiens, THP-1; for IC50: SRB, 48 hours incubation, read-out: Human cancer cell lines IC50 THP-1 (Leukemia)
Method: as §1

[1] = tested on: Ehrlich Ascites Carcinoma (EAC); type: in vivo, Swiss mice; conditions: for % Tumor cell growth: 20 mg/kg i/p day 1-9, Day 12, control = 100; for Mortality: 20 mg/kg i/p day 1-9, Day 12, dead/total animals
Method: Ehrlich ascites carcinoma (EAC) cells were collected from the peritoneal cavity of the Swiss mice harbouring 8-10 days old ascitic tumor. 1x10^7 EAC cells were injected intraperitoneally in Swiss mice selected for the experiment on day 0. The next day, animals were randomized and divided into different groups. The treatment groups contained 7 animals each and control group contained 10 animals. The treatment group was treated with 20 mg/kg of Compound 2 intra-peritoneally from day 1-9. One more of the treatment group received 5-fluorouracil (20 mg/kg, i.p) and it served as positive control. The tumor bearing control group was similarly administered normal saline (0.2 ml, i.p.). On day 12, animals were sacrificed and ascitic fluid was collected from peritoneal cavity of each mouse for the evaluation of tumor growth. Percent tumor growth inhibition was calculated based on the total number of tumor cells present in the peritoneal cavity as on day 12 of the experiment using the following formula. Percent tumor growth inhibition = (Av.no.of cells in control group−Av.no.of cells in treated group)/(Av.no.of cells in control group) × 100 [formula]

Ehrlich Tumor (solid) = type: in vivo, Swiss mice
Method: Ehrlich ascites carcinoma (EAC) cells were collected from the peritoneal cavity of the Swiss mice harbouring 8-10 days old ascitic tumor. 1x10^7 EAC cells were injected intramuscularly in right thigh of Swiss male mice selected for the experiment on day 0. The next day, animals were randomized and divided into different groups. Two treatment groups contained 7 animals each and one control group contained 10 animals. The first treatment group was given compound 2 (20 mg/kg i/p) from day 1-9. The second treatment group was treated with 5-fluorouracil (22 mg/kg, i.p) from day 1-9 and it served as positive control. The control group was similarly administered normal saline (0.2 ml, i.p.) from day 1-9. On day 9 & 13, tumor bearing thigh of each animal was shaved and longest and shortest diameters of the tumor were measured with the help of vernier caliper. Tumor weight of each animal was calculated using the following formula. Tumor weight (mg) = (Length(mm) × ([width(mm)])^2)/(2) [formula]
The percent tumor growth inhibition was calculated on day 13 by comparing the average values of treated groups with that of control group. Tumor growth in saline treated control animals was taken to be 100%. Table 6. In-vivo anticancer activity of 2 against Ehrlich ascites carcinoma (solid)

tubulin protein = type: biochemical; conditions: read-out: Tubulin polymerisation inhibition IC50
Method: The tubulin polymerization experiment was performed using 'assay kit'(Cytoskeleton USA) following manufacturer's protocol based on the procedure described by of Shelanski et al, (1973) and Lee et al. (1977). Briefly, tubulin protein (3mg/mL) in tubulin polymerization buffer (80 mM PIPES, pH 6.9, 2 mM MgCl2, 0.5 mM EGTA, 1 mM GTP and 15% glycerol) was placed in prewarmed 96-well microtiter plates at 37° C in the presence of test compounds with variable concentrations. All samples were mixed well and polymerization was monitored kinetically at 340 nm every min for 1h using a Spectramax plate reader. The IC50 value was determined from dose-dependent analysis and is defined as the concentration that inhibits the rate of polymerization by 50%. Podophyllotoxin was used as standard tubulin polymerisation inhibitor as positive control.

O=c1[nH]cc(F)c(=O)[nH]1 [5-Fluorouracil]
inhibition at 20 µM (A549 (Lung); Concentration 20 µM): 54% | inhibition at 20 µM (HCT-116 (Colon); Concentration 20 µM): 88% | inhibition at 20 µM (Hela (Cervix)): 70% | inhibition at 20 µM (MCF-7 (Breast cancer); Concentration 20 µM): 50% | inhibition at 20 µM (T-47D (Breast cancer); Concentration 20 µM): 60% | inhibition at 20 µM (THP-1 (Leukemia); Concentration 20 µM): 90% | %Tumor Growth Inhibition ([1]; 20 mg/kg i/p day 1-9, Day 12): 95.4% | Av, Volume of ascitic fluid ([1]; 20 mg/kg i/p day 1-9, Day 12): 0.7 mL | Av. No. of tumor cells ([1]; 20 mg/kg i/p day 1-9, Day 12): 6.33 x 10^7 | Av. Weight of ascitic fluid ([1]; 20 mg/kg i/p day 1-9, Day 12): 0.46 g | % Tumor cell growth [1]: 4.6% | Mortality [1]: 0/7 | Day 13 Av. Tumor weights (Ehrlich Tumor (solid); 22 mg /Kg i/p day 1-9, Day 13): 842.85 ± 129.92 mg | %Tumor Growth Inhibition (Ehrlich Tumor (solid); 22 mg /Kg i/p day 1-9, day 13): 59.07% | Mortality (Ehrlich Tumor (solid); 22 mg /Kg i/p day 1-9, dead/total animals): 0/7

COc1cc(C2c3c(cc(OC)c(OC)c3OC)C(=O)C2Cc2ccc(F)cc2)cc(OC)c1OC (centres unmarked) [Compound 4, 2-(4"-fluorobenzyl)-3-(3',4',5'-trimethoxyphenyl)-4,5,6-trimethoxy-indan-1-one]
IC50 (A549 (Lung)): 24 µM | IC50 (HCT-116 (Colon)): 22 µM | IC50 (MCF-7 (Breast cancer)): 45 µM | IC50 (T-47D (Breast cancer)): 36 µM | IC50 (THP-1 (Leukemia)): 55 µM

COc1ccc(CC2C(=O)c3cc(OC)c(OC)c(OC)c3C2c2cc(OC)c(OC)c(OC)c2)c(OC)c1 (centres unmarked) [Compound 5, 2-(2",4"-dimethoxybenzyl)-3-(3',4',5'-trimethoxyphenyl)-4,5,6-trimethoxy-indan-1-one]
IC50 (A549 (Lung)): 1 µM | IC50 (HCT-116 (Colon)): 4 µM | IC50 (MCF-7 (Breast cancer)): 12 µM | IC50 (T-47D (Breast cancer)): 12 µM | IC50 (THP-1 (Leukemia)): 1 µM

COc1cc(C2C(=Cc3ccc4c(c3)OCO4)C(=O)c3cc(OC)c(OC)c(OC)c32)cc(OC)c1OC (centres unmarked) [Compound 12, 2-benzo[1,3]dioxo-5-ylmethylene-4,5,6-trimethoxy-3-(3,4,5-trimethoxyphenyl)-indan-1-one]
IC50 (A549 (Lung)): 11 µM | IC50 (HCT-116 (Colon)): 0.1 µM | IC50 (MCF-7 (Breast cancer)): 0.01 µM | IC50 (THP-1 (Leukemia)): 4.9 µM | IC50 (tubulin protein; tubulin 3mg/mL, 37° C, 340 nm, 1h): 0.63 µM | %Tumor Growth Inhibition ([1]; 20 mg/kg i/p day 1-9, Day 12): 45.5% and 45.48% | Av, Volume of ascitic fluid ([1]; 20 mg/kg i/p day 1-9, Day 12): 6.11 mL | Av. Weight of ascitic fluid ([1]; 20 mg/kg i/p day 1-9, Day 12): 5.88 g | % Tumor cell growth [1]: 54.52% | Mortality [1]: 0/7 | Body weight Day 1 ([1]; 20 mg/kg i/p day 1-9, EAC-bearing female Swiss mice, Day 1): 21.42 g | Body weight Day 5 ([1]; 20 mg/kg i/p day 1-9, EAC-bearing female Swiss mice, Day 5): 22.85 g | Body weight Day 9 ([1]; 20 mg/kg i/p day 1-9, EAC-bearing female Swiss mice, Day 9): 22.42 g | Body weight Day 12 ([1]; 20 mg/kg i/p day 1-9, EAC-bearing female Swiss mice, Day 12): 23.16 g | Day 13 Av. Tumor weights (Ehrlich Tumor (solid); 20 mg/kg i/p day 1-9, Day 13): 1319.64 ± 56.46 mg | %Tumor Growth Inhibition (Ehrlich Tumor (solid); 20 mg/kg i/p day 1-9, day 13): 35.9% and 35.91% | Mortality (Ehrlich Tumor (solid); 20 mg/kg i/p day 1-9, dead/total animals): 0/7 | Day 13 Av. Body weights (Ehrlich Tumor (solid); 20 mg/kg i/p day 1-9, male Swiss mice, Day 13): 23.71 g | Av. Body weights (g) of animals on days 1 (Ehrlich Tumor (solid); 20 mg/kg i/p day 1-9, male Swiss mice, day 1): 21.42 g

CC(=O)O[C@H]1C(=O)[C@@]2(C)[C@H]([C@H](OC(=O)c3ccccc3)[C@]3(O)C[C@H](OC(=O)[C@H](O)[C@@H](NC(=O)c4ccccc4)c4ccccc4)C(C)=C1C3(C)C)[C@]1(OC(C)=O)CO[C@@H]1C[C@@H]2O [Paclitaxel, reference compound]
inhibition at 1 µM (A549 (Lung); Concentration 1 µM): 88% | inhibition at 1 µM (HCT-116 (Colon); Concentration 1 µM): 45% | inhibition at 1 µM (MCF-7 (Breast cancer); Concentration 1 µM): 77% | inhibition at 1 µM (T-47D (Breast cancer); Concentration 1 µM): 78% | inhibition at 1 µM (THP-1 (Leukemia); Concentration 1 µM): 60%
